Assay results reported in PMC9329436, “Optimization of the 4-anilinoquin(az)oline scaffold as epidermal growth factor receptor (EGFR) inhibitors for chordoma utilizing a toxicology profiling assay platform” (Scientific Reports, 2022).
Where two headings read alike, the source gives them in different places.

Assays:
Type in all cases: biochemical
[1] = biological target: 320 wild-type protein kinases (Homo sapiens, UniProt O75676); details: kinase RPS6KA4, singlicate
Text: (§1) Table S4. Profiling of two compounds at two concentrations against 320 wild-type protein kinases; singlicate measurement; Residual activities (% of control).

[2] = biological target: 320 wild-type protein kinases (Homo sapiens, UniProt P29376); details: LTK, singlicate
320 wild-type protein kinases (Homo sapiens, UniProt P29376), sequence (P29376 17-864): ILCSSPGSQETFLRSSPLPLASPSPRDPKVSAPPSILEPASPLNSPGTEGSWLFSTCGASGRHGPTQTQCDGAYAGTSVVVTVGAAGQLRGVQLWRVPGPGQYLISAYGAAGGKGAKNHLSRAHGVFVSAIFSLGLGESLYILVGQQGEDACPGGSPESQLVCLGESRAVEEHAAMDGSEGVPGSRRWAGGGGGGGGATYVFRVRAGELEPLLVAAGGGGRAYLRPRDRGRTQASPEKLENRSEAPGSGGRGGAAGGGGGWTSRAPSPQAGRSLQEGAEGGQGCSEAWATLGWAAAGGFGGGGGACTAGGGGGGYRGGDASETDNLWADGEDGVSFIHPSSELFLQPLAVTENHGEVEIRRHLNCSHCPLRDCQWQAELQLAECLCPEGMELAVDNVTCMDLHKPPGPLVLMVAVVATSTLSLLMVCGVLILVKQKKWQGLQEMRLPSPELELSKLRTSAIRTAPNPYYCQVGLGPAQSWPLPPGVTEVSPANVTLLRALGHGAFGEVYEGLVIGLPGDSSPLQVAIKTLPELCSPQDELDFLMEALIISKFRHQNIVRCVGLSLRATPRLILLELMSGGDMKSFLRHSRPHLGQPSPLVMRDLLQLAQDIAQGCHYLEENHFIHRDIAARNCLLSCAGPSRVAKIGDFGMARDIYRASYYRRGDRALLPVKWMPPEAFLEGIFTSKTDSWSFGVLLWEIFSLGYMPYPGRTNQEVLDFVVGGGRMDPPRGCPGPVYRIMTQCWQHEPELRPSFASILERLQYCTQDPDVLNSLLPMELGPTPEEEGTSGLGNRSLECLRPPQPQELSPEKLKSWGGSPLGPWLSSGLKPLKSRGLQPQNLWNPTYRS
Text: as §1

[3] = biological target: 320 wild-type protein kinases (Homo sapiens, UniProt Q13233); details: singlicate
Text: as §1

[4] = biological target: 320 wild-type protein kinases (Homo sapiens, UniProt Q5S007); details: singlicate
320 wild-type protein kinases (Homo sapiens, UniProt Q5S007), sequence (Q5S007 whole entry): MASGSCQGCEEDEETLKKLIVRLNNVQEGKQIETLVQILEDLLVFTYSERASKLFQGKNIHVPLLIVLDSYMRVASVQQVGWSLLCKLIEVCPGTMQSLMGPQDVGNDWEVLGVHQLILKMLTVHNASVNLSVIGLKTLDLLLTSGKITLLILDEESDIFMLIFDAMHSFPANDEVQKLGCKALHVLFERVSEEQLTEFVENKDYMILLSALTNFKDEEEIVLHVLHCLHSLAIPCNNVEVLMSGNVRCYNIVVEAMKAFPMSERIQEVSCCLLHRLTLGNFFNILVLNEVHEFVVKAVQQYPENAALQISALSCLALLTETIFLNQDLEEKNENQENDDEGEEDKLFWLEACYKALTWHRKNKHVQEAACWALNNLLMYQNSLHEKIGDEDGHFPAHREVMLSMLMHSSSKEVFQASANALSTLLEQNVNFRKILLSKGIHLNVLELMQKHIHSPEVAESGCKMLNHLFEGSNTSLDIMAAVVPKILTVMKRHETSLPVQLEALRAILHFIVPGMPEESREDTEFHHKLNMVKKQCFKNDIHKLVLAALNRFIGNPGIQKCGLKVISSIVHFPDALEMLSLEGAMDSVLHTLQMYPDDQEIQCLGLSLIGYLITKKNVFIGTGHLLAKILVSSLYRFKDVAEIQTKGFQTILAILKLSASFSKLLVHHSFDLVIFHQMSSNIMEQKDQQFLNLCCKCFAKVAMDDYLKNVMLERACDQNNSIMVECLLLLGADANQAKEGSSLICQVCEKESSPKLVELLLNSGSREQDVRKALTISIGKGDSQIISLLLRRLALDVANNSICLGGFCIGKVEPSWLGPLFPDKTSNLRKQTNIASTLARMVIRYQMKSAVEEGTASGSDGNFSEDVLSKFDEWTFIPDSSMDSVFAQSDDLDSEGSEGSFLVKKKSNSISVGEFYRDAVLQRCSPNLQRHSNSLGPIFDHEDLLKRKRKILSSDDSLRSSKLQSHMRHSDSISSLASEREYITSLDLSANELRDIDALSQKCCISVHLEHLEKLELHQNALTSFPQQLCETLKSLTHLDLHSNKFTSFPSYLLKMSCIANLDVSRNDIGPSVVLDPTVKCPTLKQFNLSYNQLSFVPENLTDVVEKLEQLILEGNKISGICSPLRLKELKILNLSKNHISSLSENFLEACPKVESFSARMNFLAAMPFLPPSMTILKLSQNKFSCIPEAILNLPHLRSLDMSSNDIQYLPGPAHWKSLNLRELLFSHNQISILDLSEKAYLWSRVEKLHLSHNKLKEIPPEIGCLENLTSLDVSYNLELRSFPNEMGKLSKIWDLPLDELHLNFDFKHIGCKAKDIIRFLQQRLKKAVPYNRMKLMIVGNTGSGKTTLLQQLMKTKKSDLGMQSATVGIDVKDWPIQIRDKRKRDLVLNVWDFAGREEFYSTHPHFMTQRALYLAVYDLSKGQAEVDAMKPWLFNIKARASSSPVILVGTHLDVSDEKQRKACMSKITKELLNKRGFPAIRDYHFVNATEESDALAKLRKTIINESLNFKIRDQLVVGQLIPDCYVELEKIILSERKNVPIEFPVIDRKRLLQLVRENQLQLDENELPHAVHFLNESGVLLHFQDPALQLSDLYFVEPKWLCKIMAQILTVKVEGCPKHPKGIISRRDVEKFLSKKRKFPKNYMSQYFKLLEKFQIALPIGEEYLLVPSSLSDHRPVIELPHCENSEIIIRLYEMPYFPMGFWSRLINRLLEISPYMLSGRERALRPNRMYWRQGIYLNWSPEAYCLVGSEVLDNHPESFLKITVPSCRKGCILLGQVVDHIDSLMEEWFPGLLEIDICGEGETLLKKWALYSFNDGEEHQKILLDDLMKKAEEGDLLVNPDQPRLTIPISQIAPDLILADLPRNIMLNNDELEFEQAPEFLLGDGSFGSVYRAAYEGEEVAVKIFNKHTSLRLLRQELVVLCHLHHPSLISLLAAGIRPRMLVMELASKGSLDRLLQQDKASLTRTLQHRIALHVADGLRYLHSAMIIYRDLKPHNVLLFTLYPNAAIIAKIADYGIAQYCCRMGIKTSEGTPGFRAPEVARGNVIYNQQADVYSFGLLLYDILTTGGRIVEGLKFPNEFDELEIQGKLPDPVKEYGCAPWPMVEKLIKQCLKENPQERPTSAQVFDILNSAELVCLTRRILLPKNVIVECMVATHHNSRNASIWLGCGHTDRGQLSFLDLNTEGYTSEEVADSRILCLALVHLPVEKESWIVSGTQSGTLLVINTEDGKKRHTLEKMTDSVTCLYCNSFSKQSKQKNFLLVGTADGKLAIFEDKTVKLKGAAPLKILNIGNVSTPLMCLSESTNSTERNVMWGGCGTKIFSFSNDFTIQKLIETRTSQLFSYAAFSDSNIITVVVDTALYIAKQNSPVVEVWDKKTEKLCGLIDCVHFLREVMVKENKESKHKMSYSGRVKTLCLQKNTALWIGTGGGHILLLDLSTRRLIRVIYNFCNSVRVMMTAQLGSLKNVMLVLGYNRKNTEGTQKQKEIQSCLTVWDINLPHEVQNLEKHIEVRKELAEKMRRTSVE
Text: as §1

[5] = biological target: 320 wild-type protein kinases (Homo sapiens, UniProt P07333); details: CSF1-R, singlicate
320 wild-type protein kinases (Homo sapiens, UniProt P07333), sequence (P07333 20-972): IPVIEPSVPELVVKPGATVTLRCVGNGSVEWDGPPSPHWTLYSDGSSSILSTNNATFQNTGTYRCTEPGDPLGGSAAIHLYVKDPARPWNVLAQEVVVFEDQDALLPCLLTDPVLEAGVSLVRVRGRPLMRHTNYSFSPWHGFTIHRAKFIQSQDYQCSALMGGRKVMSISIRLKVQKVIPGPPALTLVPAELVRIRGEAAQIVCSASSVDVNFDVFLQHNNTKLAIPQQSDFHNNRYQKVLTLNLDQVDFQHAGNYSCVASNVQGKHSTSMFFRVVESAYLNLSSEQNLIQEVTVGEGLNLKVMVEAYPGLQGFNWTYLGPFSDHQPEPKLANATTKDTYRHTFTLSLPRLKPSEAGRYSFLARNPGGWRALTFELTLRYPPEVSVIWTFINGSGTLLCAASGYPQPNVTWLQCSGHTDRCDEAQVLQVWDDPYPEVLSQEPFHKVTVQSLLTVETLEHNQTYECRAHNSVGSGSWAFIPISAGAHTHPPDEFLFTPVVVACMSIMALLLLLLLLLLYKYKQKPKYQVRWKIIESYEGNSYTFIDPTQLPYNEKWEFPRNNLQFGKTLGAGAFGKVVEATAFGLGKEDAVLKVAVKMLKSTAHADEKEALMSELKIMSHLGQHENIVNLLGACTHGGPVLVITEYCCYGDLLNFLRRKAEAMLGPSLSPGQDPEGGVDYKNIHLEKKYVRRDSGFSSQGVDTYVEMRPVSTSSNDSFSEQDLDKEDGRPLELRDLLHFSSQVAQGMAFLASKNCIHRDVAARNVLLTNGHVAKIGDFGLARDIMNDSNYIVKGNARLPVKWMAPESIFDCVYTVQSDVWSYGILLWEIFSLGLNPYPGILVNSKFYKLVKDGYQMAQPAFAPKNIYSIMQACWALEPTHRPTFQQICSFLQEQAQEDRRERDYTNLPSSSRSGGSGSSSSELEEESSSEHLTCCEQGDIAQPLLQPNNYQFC
Text: as §1

[6] = biological target: T1, 320 wild-type protein kinases (Homo sapiens, UniProt Q9HBY8); details: kinase SGK2, singlicate
T1 sequence (Q9HBY8 1-367): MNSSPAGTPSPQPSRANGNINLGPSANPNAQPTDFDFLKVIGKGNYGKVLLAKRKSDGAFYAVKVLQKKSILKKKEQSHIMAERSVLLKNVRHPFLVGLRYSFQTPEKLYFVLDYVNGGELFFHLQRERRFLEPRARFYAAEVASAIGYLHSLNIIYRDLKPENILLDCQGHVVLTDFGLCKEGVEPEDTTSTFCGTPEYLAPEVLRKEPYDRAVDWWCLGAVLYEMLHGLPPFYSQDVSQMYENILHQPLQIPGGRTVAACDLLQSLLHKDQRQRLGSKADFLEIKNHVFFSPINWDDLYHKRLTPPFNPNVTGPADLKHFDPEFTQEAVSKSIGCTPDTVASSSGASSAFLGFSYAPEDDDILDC
Text: as §1

[7] = biological target: T2, 320 wild-type protein kinases (Homo sapiens, UniProt P29322); details: singlicate
T2 sequence (P29322 28-1005): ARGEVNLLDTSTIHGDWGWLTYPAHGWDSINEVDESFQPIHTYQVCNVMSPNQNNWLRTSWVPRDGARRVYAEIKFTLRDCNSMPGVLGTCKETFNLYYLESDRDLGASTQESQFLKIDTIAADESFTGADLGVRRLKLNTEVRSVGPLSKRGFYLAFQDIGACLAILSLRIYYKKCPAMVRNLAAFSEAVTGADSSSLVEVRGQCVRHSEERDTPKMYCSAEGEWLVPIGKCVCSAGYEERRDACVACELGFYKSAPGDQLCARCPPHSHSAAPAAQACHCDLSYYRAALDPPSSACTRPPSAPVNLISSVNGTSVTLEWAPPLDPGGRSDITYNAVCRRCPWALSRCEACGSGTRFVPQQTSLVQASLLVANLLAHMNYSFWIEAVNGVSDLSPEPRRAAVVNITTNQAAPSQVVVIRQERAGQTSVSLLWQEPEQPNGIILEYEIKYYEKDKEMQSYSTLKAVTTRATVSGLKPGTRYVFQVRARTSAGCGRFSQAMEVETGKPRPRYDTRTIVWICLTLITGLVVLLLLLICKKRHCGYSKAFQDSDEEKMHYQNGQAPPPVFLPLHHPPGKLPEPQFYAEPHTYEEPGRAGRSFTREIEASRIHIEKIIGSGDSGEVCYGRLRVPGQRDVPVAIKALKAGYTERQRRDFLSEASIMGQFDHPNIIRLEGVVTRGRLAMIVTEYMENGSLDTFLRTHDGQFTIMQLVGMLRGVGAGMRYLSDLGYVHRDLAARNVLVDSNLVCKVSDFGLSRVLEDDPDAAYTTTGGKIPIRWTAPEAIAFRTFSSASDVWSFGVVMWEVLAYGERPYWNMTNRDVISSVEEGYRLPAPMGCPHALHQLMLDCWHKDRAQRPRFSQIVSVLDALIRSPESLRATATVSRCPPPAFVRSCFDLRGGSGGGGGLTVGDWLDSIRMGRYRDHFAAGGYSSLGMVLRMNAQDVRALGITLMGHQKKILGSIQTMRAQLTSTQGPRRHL
Text: as §1

[8] = biological target: T3, 320 wild-type protein kinases (Homo sapiens, UniProt Q96BR1); details: kinase SGK3, singlicate
T3 sequence (Q96BR1 1-496): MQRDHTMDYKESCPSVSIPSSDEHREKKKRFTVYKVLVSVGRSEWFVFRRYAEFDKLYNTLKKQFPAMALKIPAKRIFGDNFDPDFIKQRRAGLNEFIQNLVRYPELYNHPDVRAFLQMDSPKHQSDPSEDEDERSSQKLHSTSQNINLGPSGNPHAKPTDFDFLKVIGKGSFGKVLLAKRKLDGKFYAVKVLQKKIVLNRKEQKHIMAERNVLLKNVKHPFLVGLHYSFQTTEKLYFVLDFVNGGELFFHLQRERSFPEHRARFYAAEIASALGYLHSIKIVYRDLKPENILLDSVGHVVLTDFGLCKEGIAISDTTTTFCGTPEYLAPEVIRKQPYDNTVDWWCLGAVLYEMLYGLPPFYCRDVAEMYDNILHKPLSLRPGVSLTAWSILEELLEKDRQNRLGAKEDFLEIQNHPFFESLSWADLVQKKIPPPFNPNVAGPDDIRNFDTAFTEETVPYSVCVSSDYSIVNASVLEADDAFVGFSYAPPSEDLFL
Text: as §1

[9] = biological target: 320 wild-type protein kinases (Homo sapiens, UniProt Q16644); details: singlicate
320 wild-type protein kinases (Homo sapiens, UniProt Q16644), sequence (Q16644 whole entry): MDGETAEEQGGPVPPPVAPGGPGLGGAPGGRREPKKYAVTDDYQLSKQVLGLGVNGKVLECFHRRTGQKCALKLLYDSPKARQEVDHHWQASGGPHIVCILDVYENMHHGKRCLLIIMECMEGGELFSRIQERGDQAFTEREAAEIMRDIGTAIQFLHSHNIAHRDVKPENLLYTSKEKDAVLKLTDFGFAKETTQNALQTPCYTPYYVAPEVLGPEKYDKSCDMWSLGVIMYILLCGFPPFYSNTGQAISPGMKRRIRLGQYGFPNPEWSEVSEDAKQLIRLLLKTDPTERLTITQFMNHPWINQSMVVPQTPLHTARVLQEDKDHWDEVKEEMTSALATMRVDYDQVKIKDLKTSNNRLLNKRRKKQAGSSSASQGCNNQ
Text: as §1

Row | Structure (SMILES) | Residual activity, RPS6KA4 ([1]; assay conc. 1.0E-06 M) | Residual activity, RPS6KA4 ([1]; assay conc. 1.0E-07 M) | Residual activity ([2]; 1.0E-06 M) | Residual activity ([2]; 1.0E-07 M) | Residual activity ([3]; MAP3K1, 1.0E-06 M) | Residual activity ([3]; MAP3K1, 1.0E-07 M) | Residual activity ([4]; LRRK2, 1.0E-06 M) | Residual activity ([4]; LRRK2, 1.0E-07 M) | Residual activity ([5]; 1.0E-06 M) | Residual activity ([5]; 1.0E-07 M) | Residual activity, SGK2 ([6]; assay conc. 1.0E-06 M) | Residual activity, SGK2 ([6]; assay conc. 1.0E-07 M) | Residual activity ([7]; EPHA8, 1.0E-06 M) | Residual activity ([7]; EPHA8, 1.0E-07 M) | Residual activity, SGK3 ([8]; assay conc. 1.0E-06 M) | Residual activity, SGK3 ([8]; assay conc. 1.0E-07 M) | Residual activity ([9]; MAPKAPK3, 1.0E-06 M) | Residual activity ([9]; MAPKAPK3, 1.0E-07 M)
1 | C#Cc1cc(Nc2ncnc3cc(I)ccc23)ccc1Cl [Compound 41] | 93 % of control | 95 % of control | 77 % of control | 106 % of control | 93 % of control | 96 % of control | 87 % of control | 88 % of control | 123 % of control | 130 % of control | 86 % of control | 101 % of control | 118 % of control | 110 % of control | 86 % of control | 91 % of control | 86 % of control | 99 % of control
2 | C#Cc1cc(Nc2ncnc3cc(OC)c(OC)cc23)ccc1Cl [Compound 45] | 83 % of control | 95 % of control | 54 % of control | 100 % of control | 96 % of control | 96 % of control | 81 % of control | 99 % of control | 108 % of control | 127 % of control | 98 % of control | 94 % of control | 103 % of control | 112 % of control | 89 % of control | 93 % of control | 87 % of control | –
